Measurements reported in patent US10464967B2, “Non-hormonal steroid modulators of NF-κβ for treatment of disease” (Reveragen Biopharma, Inc., priority 2011, dated 2019).

Assays:
[1] = system: mdx mice; test: In vivo mdx mouse model of dystrophy
Description: Separate groups (n=12-14) of mdx mice were treated with prednisolone (5 mg/kg/day; per oral in feed), Example 1 (20 and 40 mg/kg/day; per oral in feed) and Example 2 (20 and 40 mg/kg/day; per oral in feed) for 3 months. All mice underwent 30 min biweekly treadmill exercise during the treatment duration to unmask the mild disease phenotype of mdx mouse model.
Motor coordination and strength were assessed using Rota-rod (Ugo Basile, VA, Italy) testing. Briefly, mice were trained on the rota-rod for two days before collecting data. Each acclimatization session consisted of four training sessions, 2 per day and each session lasting 120 seconds at a speed of 5 rpm). Each trial consisted of placing the mice on the rod at 10 rpm for 60 seconds (stabilizing period) followed by an acceleration from 10 rpm to 40 rpm within the first 25 seconds until the animal fell from the rod or until 180 seconds are reached. If the animals fell during the stabilizing period, they were placed back on the rod to complete the session. The total testing time was 240 seconds (60 seconds stabilization time and 180 seconds test time). Each trial was performed twice a day (2 hour interval between sessions) for 3 consecutive days. The latency to fall (seconds) was recorded and all six scores were averaged per mouse. The average data was expressed as latency to fall (in seconds) for each group mice at 3 age groups.
The distal tendon of the extensor digitorum longus (EDL) muscle was tied securely to the lever arm of a servomotor/force transducer (model 305B, Aurora Scientific, Richmond Hill, ON, Canada) and the proximal tendon to a tissue clamp. Muscles were stimulated between two platinum electrodes. […] With the muscle held at Lo using stimulation frequencies of 30, 50, 80, 100, 120 and 150 Hz, the maximum isometric tetanic force (Po) developed during a 300 ms train of stimulation pulses was recorded for the EDL muscle. The muscle length was then measured with calipers and after removal of the muscle from the bath the mass of the muscle was determined. For each muscle, the optimum fiber length (Lf) was calculated by multiplying Lo by a previously determined Lf/Lo ratio of 0.45. Total muscle fiber cross-sectional area was determined by dividing the wet mass by the product of Lf and the density of mammalian skeletal muscle (1.06 mg/mm^3). Maximum isometric specific force (sPo) was determined by dividing Po by the total muscle fiber cross-sectional area.

[2] = system: C57BL/6 mice; test: Mouse carrageenan-induced paw edema model; type: in vivo; details: 10, 20, 40 mg/kg in cherry syrup; 5 hours after carrageenan
Description: Female C57BL/6 mice (n=5 per group) were administered prednisone (5 mg/kg) and the compound of Example 9 (10, 20, 40 mg/kg) in cherry syrup. 24 hours later, drugs and vehicle control (syrup) were administered again. 2 hours later, mice were anesthetized, paw thickness was measured with a caliper to obtain a baseline value, and 1% carrageenan was injected subcutaneously in the subplantar region of the right hind paw. Mice were sacrificed 5 hours later and paw edema was measured via caliper. Change in thickness was calculated by subtracting baseline value from post-carrageenan injection value. Statistical analysis was performed using a Student's T-test.

[3] = system: DBA/1 mice; test: Collagen antibody induced arthritis (CAIA) model; type: in vivo, mouse; details: for Mean clinical severity score / Reduction as compared with vehicle-treated mice: prednisone 5 mg/kg, Example 9 20 mg/kg oral
Description: On day 1, DBA/1 mice (Jackson Labs, Bar Harbor, Me.) received an intraperitoneal (i.p.) injection of 2 mg of monoclonal antibody cocktail specific for collagen (CII) (MD Biosciences, St. Paul, Minn.). Two days later (day 3), mice received an i.p. injection of 100 μg of lipopolysaccharide (LPS). Mean clinical severity of CAIA was determined using a macroscopic clinical severity scoring system every 2-3 days by three individuals until the end of the experiment (day 14 post antibody cocktail injection). The scoring criteria was performed as follows: 0: No signs of disease; 1: Mild redness and/or swelling of one digit; 2: Redness and/or swelling of 2 digits; 3: Redness and/or swelling of more than 2 digits; 4: Redness and swelling of entire paw.
For intervention studies, mice (n=10) received an oral dose of 20 mg/kg of the compound of Example 9 suspended in cherry syrup (30 μl total volume) on day 0 through day 14. Additional groups of mice (n=10) received 5 mg/kg of prednisone in cherry syrup as a positive control, or cherry syrup alone as a negative control. On day 14, animals were sacrificed via CO2 exposure. Statistical analysis was performed using a two-way ANOVA followed by a Bonferroni post-hoc test.

[4] = system: mice; test: OVA-induced mouse model of acute allergic asthma; type: in vivo; details: 20 mg/kg oral on days 6-11
Description: The model used in the current studies has been previously described (Gwinn et al. 2006; Balsley et al. 2010). Briefly, mice were primed via intraperitoneal (i.p) injection with 50 μg of OVA in PBS with 100 μl of alum (200 μl total volume per mouse) on day 0. OVA-primed mice were challenged under light anesthesia (isoflurane) by intranasal delivery of 100 μg of OVA in PBS on days 7-10. Mice were sacrificed via CO2 exposure on day 12 for analysis.
For in vivo intervention studies, mice (n=5) received an oral dose of 20 mg/kg of the compound of Example 9 suspended in cherry syrup (30 μl total volume) on days 6-11. Additional groups of mice (n=5) received 5 mg/kg of prednisone in cherry syrup as a positive control, or cherry syrup alone as a negative control. Following sacrifice on day 12, leukocytes were collected from the airways via bronchoalveolar lavage (BAL). For this procedure, a cannula was inserted into the trachea and two 1 ml washes of cold PBS were infused in and out of the airways. […]
BAL and lung tissue cells were treated with ammonium chloride lysis buffer to remove red blood cells. The remaining leukocytes were then counted and stained for FACS analysis with a combination of PE-Cy5-anti-mouse CD4 and FITC-anti-mouse CD62L to identify effector/memory CD4+ cells (CD4+/CD62L−). […]

[5] = 20 and 40 mg/kg/day for 3 months, vs untreated and prednisolone treated

C[C@]12C=CC(=O)C=C1CC[C@@H]1[C@@H]2[C@@H](O)C[C@@]2(C)[C@H]1CC[C@]2(O)C(=O)CO [Prednisolone]
Body weight vs untreated mice ([1]; 5 mg/kg/day per oral in feed, 33.8 weeks age): significantly lower body weight
Histology (H&E) of gastrocnemius muscle ([1]; continuous prednisolone 5 mg/kg/day): appeared to increase degeneration and decrease in regeneration of dystrophic skeletal muscle
EDL specific force vs untreated ([1]; prednisolone 5 mg/kg/day): no statistically significant (P<0.05) difference in specific force

C[C@]12C=CC(=O)C=C1CCC1C2=CC[C@@]2(C)C1CC[C@]2(O)C(=O)CO (stereo partly drawn) [Example 2, (10S,13S,17R)-17-hydroxy-17-(2-hydroxyacetyl)-10,13-dimethyl-6,7,8,10,12,13,14,15,16,17-decahydro-3H-cyclopenta[a]phenanthren-3-one]
Histology (H&E) of gastrocnemius muscle [1, 5]: significant decrease in inflammation, degeneration, and increase in regenerating muscle fibers

C[C@@H]1CC2C3CCC4=CC(=O)C=C[C@]4(C)C3=CC[C@]2(C)[C@@]1(O)C(=O)CO (stereo partly drawn) [Example 9, (10S,13S,16R,17R)-17-hydroxy-17-(2-hydroxyacetyl)-10,13,16-trimethyl-6,7,8,10,12,13,14,15,16,17-decahydro-3H-cyclopenta[a]phenanthren-3-one]
Carrageenan-induced paw edema [2]: effective at reducing mouse paw edema induced by carrageenan
Collagen antibody induced arthritis ([3]; 20 mg/kg oral, day 0 through day 14): effective at reducing collagen antibody induced arthritis
Mean clinical severity score ([3]; Day 7): 4.5 ± 0.95
Reduction as compared with vehicle-treated mice ([3]; Day 7): 43.8%
Mean clinical severity score ([3]; Day 9): 5.0 ± 0.77
Reduction as compared with vehicle-treated mice ([3]; Day 9): 35.5%
Mean clinical severity score ([3]; Day 11): 5.6 ± 0.82
Reduction as compared with vehicle-treated mice ([3]; Day 11): 41.3%
Mean clinical severity score ([3]; Day 14): 3.1 ± 0.69
Reduction as compared with vehicle-treated mice ([3]; Day 14): 50%
Parameters of acute allergic lung inflammation (leukocyte infiltration, mucus production) [4]: effective at improving parameters of acute allergic lung inflammation

C[C@]12C=CC(=O)C=C1CC[C@@H]1[C@@H]2C(=O)C[C@@]2(C)[C@H]1CC[C@]2(O)C(=O)CO [Prednisone, reference compound]
Mean clinical severity score ([3]; Day 7): 2.4 ± 0.68
Reduction as compared with vehicle-treated mice ([3]; Day 7): 69.8%
Mean clinical severity score ([3]; Day 9): 1.5 ± 0.27
Reduction as compared with vehicle-treated mice ([3]; Day 9): 69.8%
Mean clinical severity score ([3]; Day 11): 2.9 ± 0.39
Reduction as compared with vehicle-treated mice ([3]; Day 11): 69.1%
Mean clinical severity score ([3]; Day 14): 0.7 ± 0.3
Reduction as compared with vehicle-treated mice ([3]; Day 14): 88.7%

C[C@]12CCC(=O)C=C1CCC1C2=CC[C@@]2(C)C1CC[C@]2(O)C(=O)CO (stereo partly drawn) [Example 1, (10S,13S,17R)-17-hydroxy-17-(2-hydroxyacetyl)-10,13-dimethyl-6,7,8,10,12,13,14,15,16,17-decahydro-1H-cyclopenta[a]phenanthren-3(2H)-one]
Histology (H&E) of gastrocnemius muscle [1, 5]: significant decrease in inflammation, degeneration, and increase in regenerating muscle fibers
